We go through 3 compounds from patent US20050164979A1, “Pharmaceutical composition for ophthalmological and rhinological application” (priority 2001, published 2005).

Data set [1] deals with cornea-epithelial barrier. As to conditions: dexpanthenol-bearing eye drops; barrier disturbed by insufficient tear film; Klinische Monatsblätter für Augenheilkunde (1996) 209; 84-88; cited from earlier work.
A further data set concerns cornea epithelium. Description: wound healing after injury to the cornea epithelium or cauterisation of the cornea. Type of data set: in vivo. To be noted: less scarring.
Data set [2] in a line: tear film tearing time (fluorescein, slit lamp). Type of data set: in vivo. As to conditions: concentration of 0.1% by weight to 0.3% by weight. The source says:
A further diagnostic parameter in regard to diagnosis of the “dry eye” syndrome is the tear film tearing time which makes it possible to provide information about the quality of the tear fluid. In that case for example the tear film is dyed with fluorescein and the patient is then asked to keep the eyes open as long as possible without a blink reflex. A slit lamp is then used to establish when the tear film tears open for the first time. If the period of time is less than 10 seconds, there is the suspicion of the “dry eye” syndrome.

Data set [3] can be described thus: subjective feeling of patients when treating dry eyes. In kind it is in vivo. To be noted: 0.1% by weight of sodium hyaluronate in the composition. The text has this: Aqueous sodium hyaluronate solutions are fluids with non-Newtonian flow properties. By virtue of that physical property, aqueous sodium hyaluronate solutions are excellently well suited as slip and lubricating agents with a good cling effect and a prolonged residence time on the conjunctival and corneal epithelia, without adversely affecting visual efficiency.

For data set [4] the following is noted: eye drops containing at least 0.1% of sodium hyaluronate; Jpn. J. Ophthalmol. (1996) 40: 62-65; cited from earlier work.
Data set [5] has as its system cornea epithelium cells of rabbits. Description: epithelium cell migration. In kind it is cell-based. As to conditions: 0.1% by weight sodium hyaluronate solution.

Turning to `CC(C)(CO)[C@@H](O)C(=O)NCCCO` [dexpanthenol, D-(+)-2,4-dihydroxy-N-(3-hydroxypropyl)-3,5-dimethylbutyramide], the cornea-epithelial barrier function result in data set [1] is on record as “improve the cornea-epithelial barrier function”.
As for hyaluronic acid, the wound healing result in the data set with cornea epithelium is “faster and better wound healing”. Further, in data set [2], the “prolonging the tear film tearing time” value was “highly effective”.
sodium hyaluronate: in data set [3], the “subjective feeling of the patients” value was “considerably improves”. Further, in data set [4], the tear film stability result is listed as “improvement in tear film stability”. Besides, in the data set with cornea epithelium, the wound healing entry was “faster and better wound healing”. For the same compound, the epithelium cell migration entry in data set [5] was “increased epithelium cell migration”.
